Assay results from US20110257245A1, “METHODS OF IDENTIFYING REGULATORS OF CELLULAR PROTEOSTASIS” (The Board of Trustees of the Leland Stanford Junior …, priority 2010, published 2011).
Where a SMILES comes first, the peptide text is derived from it. The star is where a group is joined. Cbz = O=C(OCc1ccccc1)*

B1: [35S]PY-Sic1(Ubn): [35S]-labeled polyubiquitinated PY-Sic1 model substrate of the 26S proteasome (protein, UniProt P38634 1-284, looked up)
Protein SIC1: MTPSTPPRSRGTRYLAQPSGNTSSSALMQGQKTPQKPSQNLVPVTPSTTKSFKNAPLLAPPNSNMGMTSPFNGLTSPQRSPFPKSSVKRTLFQFESHDNGTVREEQEPLGRVNRILFPTQQNVDIDAAEEEEEGEVLLPPSRPTSARQLHLSLERDEFDQTHRKKIIKDVPGTPSDKVITFELAKNWNNNSPKNDARSQESEDEEDIIINPVRVGKNPFASDELVTQEIRNERKRAMLRENPDIEDVITYVNKKGEVVEKRRLTDEEKRRFKPKALFQSRDQEH
modifications: 35S label, PY motif, polyubiquitinated
notes: [35S]-labeled polyubiquitinated PY-Sic1 model substrate of the 26S proteasome

Experiments:
[1] = test system: 26S proteasomes; test: In vitro Sic1 degradation assay; assay type: biochemical, rat
Procedure: The substrate degradation reaction was carried out at room temperature in 50-100 μL total volume containing 10 nM 26S, 1×ATP buffer, and 100 nM [35S]Sic1-Ubn. 5 μL reaction aliquots were removed at various time points and separated on a 4-20% gradient gel followed by autoradiography. Alternately, aliquots were added to 10% trichloroacetic acid (TCA) or ddH20 on ice for 30 min and 2 mg/mL bovine serum albumin as a carrier. Samples were centrifuged at 12,000×g for 30 min, and the supernatant removed for analysis by scintillation spectrometry. The percent of degradation was determined by dividing the measured counts after TCA precipitation by the total counts measured in ddH20. To assess the ubiquitin-dependence of degradation, [35S]Sic1-Ubn was pretreated with 10 nM Usp2 cc (Baker et al., 2005) for 30 min at 37° C. prior to the addition of proteasomes. To inhibit substrate degradation, 26S proteasomes were pretreated with 10 μM MG132 (Biomol) prior to the addition of substrate. The initial rate of degradation was determined by least-squares linear regression analyses of 5, 10, and 20 min time points using Sigmaplot. The dependence of the initial rate of degradation on substrate concentration was plotted, and the data fit to the Michaelis-Menten equation using Sigmaplot.

[2] = test system: HEK293 cells stably expressing GFP-CL1, UbG76V-GFP, Ub-R-GFP or cODC-GFP; test: Fluorescent proteasome reporters challenged with proteasome inhibitor; assay type: cell-based; conditions: 10 μM MG-132, all four reporters
Procedure: FIG. 6 depicts features of fluorescent proteasome reporters, used in embodiments of the present invention. Untransfected HEK293 cells, and cells stably expressing GFP-CL1, UbG76V-GFP, Ub-R-GFP or cODC-GFP were treated with 10 μM MG-132 and at the times indicated, mean GFP fluorescence was analyzed by flow cytometry (Panel A) or by fluorescence microscopy of living cells (Panel B). […] Cells were incubated overnight at the permissive temperature 32° C. (black bars), at 32° C. in the presence of 10 μM MG-132 (white bars) or at the non-permissive temperature 40° C. (grey bars). Mean GFP fluorescence was analyzed by flow cytometry, and plotted as relative fluorescence change. […] HEK293 cells stably expressing UbG76V-GFP or GFP were transiently transfected with httchFP, and analyzed as described in FIG. 1B. […] Htt(Q91)-chFP-specific GFP fluorescence is plotted for GFP (♦) and UbG76V-GFP expressing cells (▪).
Unless indicated, cells were harvested 72 hrs after transfection and analyzed with a Becton-Dickinson LSRII flow cytometer with a 488 nm and a 535 nm Laser (BD, Franklin Lakes, N.J.). To ensure a sufficient number of cells with elevated levels of the transfected protein, over 200,000 cells were analyzed per condition in a typical experiment. […] Raw flow cytometry data were analyzed using FlowJo (version 8.8.6, Tree Star) software. […]

| Molecule | effect on degradation of PY-Sic1(Ubn) by purified proteasomes ([1]; 10 μM MG132, 10 nM 26S, 100 nM substrate) | fluorescence of GFP-degron proteasome reporters [2] | Km ([1]; 10 nM 26S proteasomes, read-out: Km of [35S]PY-Sic1(Ubn) degradation (Michaelis-Menten analysis)) [µM] |
| --- | --- | --- | --- |
| CC(C)C[C@@H](C=O)NC(=O)[C@H](CC(C)C)NC(=O)[C@H](CC(C)C)NC(=O)OCc1ccccc1 [MG132] (Cbz-Leu-Leu-Leu-aldehyde) | inhibited | diffuse time-dependent increases in cytoplasmic fluorescence |  |
| B1 |  |  | 0.0469 ± 0.0035 |
